Where “and” joins values, the source holds several entries; their conditions need not be identical. Identical values can stand only once. Like-named read-outs stand apart in the source and are kept apart here. Marks after values point to notes of the source that are not given here.
Columns and labels:
[1] = tested on: P. falciparum D6 (drug sensitive); assay: 72 h SYBR Green I assay, P. falciparum D6; format: cell-based; settings: Plasmodium falciparum, D6, 72 h, read-out: In vitro activity vs. P. falciparum IC50, D6
[2] = tested on: P. falciparum Dd2 (chloroquine resistant); assay: 72 h SYBR Green I assay, P. falciparum Dd2; format: cell-based; settings: Plasmodium falciparum, DD2, 72 h, read-out: In vitro activity vs. P. falciparum IC50, Dd2
[3] = tested on: P. falciparum Tm90-C2B (Chloroquine and Atovaquone resistant); assay: 72 h SYBR Green I assay, P. falciparum Tm90-C2B; format: cell-based; settings: Plasmodium falciparum, TM90, 72 h, read-out: In vitro activity vs. P. falciparum IC50, C2B
[4] = tested on: blood-stage Plasmodium yoelii; assay: Modified 4-day suppression test in mice; format: in vivo; settings: 4-day Peters Test
P. yoelii = assay: Single dose cure of patent infection in mice; format: in vivo; settings: dose required to clear patent infection without recrudescence for 30 days post-infection, PEG-400
[5] = tested on: luciferase-transfected P. berghei sporozoites; format: in vivo, C57BL/6 albino mice; settings: 24 hours prior to sporozoite inoculation
HepG2 cells = assay: Mitochondrial toxicity, CellTiter-Glo ATP in galactose medium; format: cell-based, human; settings: 72 hour incubation
[6] = biological target: T1, P. falciparum cytochrome bc1 (Plasmodium falciparum, UniProt Q02768); settings: read-out: P. falciparum cytochrome bc1 EC50, cited from earlier work
T1 sequence (Q02768 1-376): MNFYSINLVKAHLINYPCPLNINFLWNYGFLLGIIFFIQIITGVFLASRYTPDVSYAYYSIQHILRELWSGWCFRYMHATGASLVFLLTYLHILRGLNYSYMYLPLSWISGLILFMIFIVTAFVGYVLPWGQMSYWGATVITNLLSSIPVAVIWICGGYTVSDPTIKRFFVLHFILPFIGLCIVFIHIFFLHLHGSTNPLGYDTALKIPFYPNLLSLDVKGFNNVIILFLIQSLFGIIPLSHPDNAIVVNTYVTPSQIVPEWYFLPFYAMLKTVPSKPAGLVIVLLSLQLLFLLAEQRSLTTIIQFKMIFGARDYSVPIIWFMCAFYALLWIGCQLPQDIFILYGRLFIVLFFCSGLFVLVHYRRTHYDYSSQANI

Human cytochrome bc1 [7] = biological target: T2, Human cytochrome bc1 (Homo sapiens, UniProt P00156); settings: read-out: Human cytochrome bc1 EC50; ref Nilsen, et al. 14; cited from earlier work
[8] = tested on: luciferase-transfected P. berghei sporozoites; settings: dosed 1 hour prior to sporozoite inoculation; cited from earlier work
Human cytochrome bc1 [9] = biological target: T2, Human cytochrome bc1; assay: Human cytochrome bc1 inhibition; format: biochemical; settings: read-out: Human cytochrome bc1 EC50
in vitro = in vitro ADME; settings: human, plasma

With `CCN(CC)CCCC(C)Nc1ccnc2cc(Cl)ccc12` (stereo not drawn) [CQ, chloroquine] the IC50 [1] was 10 nM, the IC50 [2] was 140 nM and the IC50 [3] was 98 nM. For the same compound, the “In vivo efficacy (oral) P. yoelii NRD (non-recrudescence dose)” value [4] was greater than 64 mg/kg/day and the “In vivo efficacy (oral) P. yoelii Single Dose Cure” value (P. yoelii) was greater than 64 mg/kg/day.
With `COc1cc2[nH]c(C)c(-c3ccc(Oc4ccc(OC(F)(F)F)cc4)cc3)c(=O)c2cc1Cl` [ELQ-300] the “In vivo efficacy (oral) P. yoelii NRD (non-recrudescence dose)” value [4] was 1 mg/kg/day and 1.0 mg/kg/day, the “In vivo efficacy (oral) P. yoelii Single Dose Cure” value (P. yoelii) was >20 ^e mg/kg/day and the “Mice with positive IVIS signal at 24 hours” value ([5]; 0.1 mg/kg oral) was 2/5. For the same compound, the “Mice with positive IVIS signal at 48 hours” value ([5]; 0.1 mg/kg oral) was 5/5, the “Mice with no parasitemia” value ([5]; 1 mg/kg oral) was 4/5 and the “Mice with no parasitemia” value ([5]; 3 mg/kg oral) was 5/5. For the same compound, the “Parasite burden in the liver (IVIS)” value ([5]; 3 and 1 mg/kg oral) was “no detectable parasite burden in the liver”, the “Highest concentration without inhibition or alteration of ATP production” value (HepG2 cells) was no less than 25 µM and the EC50 ([6]; ref Nilsen, et al. 14) was 0.56 nM. The EC50 (Human cytochrome bc1 [7]) was greater than 10000 nM and the “Fully protective dose against liver stage infection” value [8] was no more than 0.03 mg/kg.
With `COc1cc2nc(C)c(-c3ccc(Oc4ccc(OC(F)(F)F)cc4)cc3)c(OCOC(=O)OC(C)C)c2cc1Cl` [ELQ-330] the “In vivo efficacy (oral) P. yoelii Single Dose Cure” value (P. yoelii) was 5.0 mg/kg/day.
In the case of `CCOC(=O)Oc1c(-c2ccc(Oc3ccc(OC(F)(F)F)cc3)cc2)c(C)nc2cc(OC)c(Cl)cc12` [ELQ-337], the EC50 (Human cytochrome bc1 [9]) is listed as greater than 10000 nM and the EC50 ([6]; ref Miley, et al. 26) is listed as 10000 nM.
With `CCOC(=O)OC(C)Oc1c(-c2ccc(Oc3ccc(OC(F)(F)F)cc3)cc2)c(C)nc2cc(OC)c(Cl)cc12` (stereo not drawn) [ELQ-387] the “In vivo efficacy (oral) P. yoelii Single Dose Cure” value (P. yoelii) was 5.0 mg/kg/day.
Work on `CC(C)[N+](C)(CCOC(=O)C1c2ccccc2Oc2ccccc21)C(C)C` [Propantheline bromide] yielded a half-life at 1 μM (in vitro) of 37.5 min.

— PMC5947850 (ACS infectious diseases, 2017)
